# In patent US8007782B2, “Combination bacteriolytic therapy for the treatment of tumors” (priority 2003, dated 2011):
# Assays:
# [1] = test system: HCT116 human colorectal cancer cells; experiment: Tumorigenicity assay, HCT116 xenografts in nude mice; assay type: in vivo; settings: for Effect with C. novyi-NT / Effect alone: nude mice; for Effect alone: agent alone
# Excerpt: (§1) All animal protocols were designed in accordance with the Guide for the Care and Use of Laboratory Animals (NIH Publication 86-23) and were approved by the Johns Hopkins University Institutional Animal Care and Use Committee. Six to eight week old mice were implanted subcutaneously on one flank with 3 to 6 million cancer cells. Establishment of tumors of 150 to 500 mm3 took 8 to 21 days, depending on the cell type. C. novyi-NT spores (300×106) and anti-microtubule agents were generally administered by a single intravenous injection through the tail vein in a total volume of 300 to 500 ul phosphate-buffered saline (PBS). Quantitative assessment of tumor growth was performed by measuring subcutaneous tumor grafts (major and minor axis) using electronic calipers. Tumor volume was calculated using the equation: length×width2×0.5. Progression free survival was defined as the length of time following treatment before any increase in tumor volume was observed. Mice were considered “cured” if no tumor was evident three months after treatment. Animals were weighed at least twice a week and carefully observed for signs of toxicity every day for the first week following treatment and then twice a week thereafter. At least five mice were used for each treatment arm described in the Experimental Results.
# The timing, route, and dose of agents are critical for the success of any experimental therapy. When two agents are combined, the number of variables that must be tested increases exponentially. To simplify interpretation of the comparisons between various anti-microtubule agents, pilot studies with representative drugs were performed.
# Eighteen agents known to interact with microtubules were each tested in this manner in nude mice harboring xenografts of HCT116 human colorectal cancer cells. At least five mice harboring tumors of 150 to 500 mm3 in size were used for each experimental arm. Two classes of responses were noted. One type of response was characterized by a rapid hemorrhagic necrosis, observed only with agents that inhibited microtubule […] (FIG. 1A, B). The other type of response was characterized by a slow regression, observed with agents that stabilized microtubules (FIG. 2A, B).
# [2] = test system: HuCC-T1 cholangiocarcinoma; experiment: Tumorigenicity assay, HuCC-T1 xenografts; assay type: in vivo, nude mice
# Excerpt: as §1
# We next evaluated the responses to COBALT/HTI-286 in other murine tumor models. […]
# [3] = Mortality following COBALT; assay type: in vivo, nude mice; settings: deaths within one week, pooled xenograft models
# Excerpt: as §1
# (§2) This toxicity was observed only when the combination of C. novyi-NT spores and the drugs was administered and not with either the bacteria or the drugs alone. […] Though major tumor regressions were common, few mice died as a result of therapy (Table 2) No deaths occurred after treatment with the microtubule stabilizers plus C. novyi-NT, while 4% to 8% of mice treated with microtubule destabilizers plus C. novyi-NT died. The only other toxicity observed was transient weight loss (Table 3). Mice treated with the drugs alone lost ˜5 to 10% of their body weight within 7 days, while weight loss after treatment with C. novyi-NT plus these drugs varied from 8% to 18%. All weights recovered to pre-treatment levels within two weeks.
# Weight loss after COBALT = assay type: in vivo, nude mice; settings: maximum average weight loss relative to weight one day prior to treatment, HCT116 xenografts
# Excerpt: as §1, §2
# [4] = test system: tumor blood flow in HCT116 xenografts; experiment: Assessment of blood perfusion (Hoechst 33342) in HCT116 xenografts; assay type: in vivo, mice; settings: HTI-286 1.7 mg/kg or docetaxel 50 mg/kg iv, 3 and 24 hr after treatment
# Experimental: Three or 24 hours after treatment, mice were intravenously injected with Hoechst 33342 (40 mg/kg) and euthanized two minutes later. Tumors were cryosectioned and viewed by fluorescence microscopy after counter-staining with acridine orange (AO). Endothelial cells are stained blue when they have taken up the Hoechst 33342 dye. Adjacent sections were stained with MECA-32 monoclonal antibody, a vascular endothelium-specific marker. Arrows point towards normal blood vessels unaffected by HTI-286 treatment in overlying skin.
# Mice bearing HCT116 xenografts of 300 to 500 mm3 were injected intravenously with anti-microtubule agents. At various times thereafter, they were intravenously injected with Hoechst 33342 (40 mg/kg), then euthanized two minutes later by CO2 narcosis. Tumors were fixed in Tissue-Tek OTC compound (Sakura Finetek, Torrance, Calif.) and stored at −80° C. Frozen sections 10 microns in thickness were prepared with a Leica Microsystems cryostat and counterstained with acridine orange, 7.5 ug/ml, in PBS for 5 minutes. […] At least three sections of each of three tumors, representing middle and distal parts of the tumor, were examined under fluorescence microscopy for each agent tested, and representative results are illustrated in the figures. […]
# [5] = test system: Glucose Transporter-1 (Glut-1); experiment: Immunohistochemistry for Glut-1 (hypoxia marker) in HCT116 xenografts; assay type: in vivo, mice; settings: HTI-286 1.7 mg/kg or docetaxel 50 mg/kg iv, 6 hr after treatment
# Experimental: Mice were euthanized six hours after treatment. Tumors were sectioned and H & E stained. Adjacent sections were stained for Glut-1 expression, a marker for hypoxia. Cells positive for Glut-1 appear brown. Arrows indicate examples of hemorrhage.
# Paraffin sections were deparaffinized, incubated with proteinase K (Invitrogen), heated at 95° C. for 20 min in citrate buffer (pH 6), and treated with peroxidase blocking reagent (Dako). Sections were incubated with a monoclonal antibody against Glucose Transporter-1 (Glut-1, Dako) followed by a biotin-conjugated secondary antibody (Pierce). A third layer consisting of HRP-conjugated anti-biotin (DAKO) was followed by diaminobenzidine (Sigma) staining. Sections were counterstained with eosin.
# Two independent tests of this hypothesis were performed. First, we directly assessed hypoxia within tumors by staining with an antibody to Glucose Transporter-1 (Glut-1). Glut-1 has been extensively studied and shown to be specifically expressed only in hypoxic regions (Airley et al., 2001).
# C. novyi-NT = experiment: Quantification of C. novyi-NT in tumors by real-time PCR; assay type: in vivo, C. novyi-NT in mice bearing HCT116 xenografts; settings: versus spores without drug; HCT116 xenografts; SD printed +/−0.08 (HTI-286), +/−0.3 (docetaxel)
# Experimental: Mice bearing HCT116 xenografts were treated with C. novyi-NT spores with or without HTI-286 (1.7 mg/kg) as described above. Following euthanasia 24-48 hr later, tumors were harvested, weighed, minced, and Dounce-homogenized. Genomic DNA was isolated using the Qiagen Genomic DNA Buffer Set and Genomic-tip 100/G. 25 ng of DNA was used in a PCR using the conditions described in (Vogelstein and Kinzler, 1999) The following primers specific for the C. novyi-NT phospholipase C gene were used: 5′-[…] (SEQ ID NO:1) and 5′-[…] (SEQ ID NO:2). No detectable primer dimers formed and no nonspecific amplification of mouse or xenograft genomic DNA occurred with these primers and PCR conditions. Real-time PCR was performed using an iCycler, and threshold cycle numbers were calculated using the iCycler Optical system interface software (Bio-Rad Lab, Hercules, Calif.). Averages of the threshold cycle number (Ct) of triplicate measurements per tumor were obtained, and three different tumors were studied for each treatment group. The results were expressed as the difference between the Ct of the treated tumor and the Ct of untreated controls, normalized to tumor weight.
# Second, we directly tested the size of bacterial populations within tumors by measuring the number of bacteria at various times following intravenous injection of C. novyi-NT spores into mice bearing HCT116 xenografts. […]
# [6] = 50 mg/kg × 1 (iv) with 3×108 C. novyi-NT spores iv
structure (smiles),measurement,setting,value
"CCC(=O)O[C@H]1C[C@H]2OC[C@@]2(OC(C)=O)[C@H]2[C@H](OC(=O)c3ccccc3)[C@]3(O)C[C@H](OC(=O)[C@H](O)[C@@H](NC(=O)OC(C)(C)C)c4ccco4)C(C)=C([C@@H](O)C(=O)[C@]12C)C3(C)C [MAC-321, 5β,20-epoxy-1,2α-,4-,7β-,10β-,13α-hexahydroxytax-11-en-9-one 4 acetate 2 benzoate 7 propionate 13-ester with (2R,3S)—N-tertbutoxycarbonyl-3-(2-furyl)isoserine]",Effect with C. novyi-NT,[1]; 10 mg/kg × 1 (iv) with 3×108 C. novyi-NT spores iv,++ (10% to 50% shrinkage in tumor volume relative to pre-treatment size)
same,Effect with C. novyi-NT,[1]; 45 mg/kg × 1 (iv) with 3×108 C. novyi-NT spores iv,++++ (>20% cures)
same,Effect with C. novyi-NT,[1]; [6],++++ (>20% cures)
same,Effect with C. novyi-NT,[1]; 60 mg/kg × 1 (iv) with 3×108 C. novyi-NT spores iv,++++ (>20% cures)
same,Effect with C. novyi-NT,[1]; 70 mg/kg × 1 (iv) with 3×108 C. novyi-NT spores iv,++++ (>20% cures)
same,Effect alone,[1]; 10 mg/kg × 1 (iv),+
same,Effect alone,[1]; 45 mg/kg × 1 (iv),+++ (>50% shrinkage in tumor volume relative to pre-treatment size)
same,Effect alone,[1]; 50 mg/kg × 1 (iv),+++ (>50% shrinkage in tumor volume relative to pre-treatment size)
same,Effect alone,[1]; 60 mg/kg × 1 (iv),+++ (>50% shrinkage in tumor volume relative to pre-treatment size)
same,Effect alone,[1]; 70 mg/kg × 1 (iv),+++ (>50% shrinkage in tumor volume relative to pre-treatment size)
same,mice cured (in words),[1]; cured = no tumor evident three months after treatment,no mice
same,mice cured (number of mice),[2],one of eight
same,# dead (treatment-related deaths),[3]; drug dose 45.0 mg/kg,0
same,# dead (treatment-related deaths),[3]; drug dose 50.0 mg/kg,0
same,# dead (treatment-related deaths),[3]; drug dose 60.0 mg/kg,0
same,# dead (treatment-related deaths),[3]; drug dose 70.0 mg/kg,0
same,Weight Loss (%),Weight loss after COBALT; drug dose 60.0 mg/kg,5.5%
CC(=O)O[C@@]12CO[C@@H]1C[C@H](O)[C@@]1(C)C(=O)[C@H](O)C3=C(C)[C@@H](OC(=O)[C@H](O)[C@@H](NC(=O)OC(C)(C)C)c4ccccc4)C[C@@](O)([C@@H](OC(=O)c4ccccc4)[C@H]21)C3(C)C [docetaxel],Effect with C. novyi-NT,[1]; 12.5 mg/kg × 1 (iv) with 3×108 C. novyi-NT spores iv,++ (10% to 50% shrinkage in tumor volume relative to pre-treatment size)
same,Effect with C. novyi-NT,[1]; 25 mg/kg × 1 (iv) with 3×108 C. novyi-NT spores iv,+++ (>50% shrinkage in tumor volume relative to pre-treatment size)
same,Effect with C. novyi-NT,[1]; [6],++++ (>20% cures)
same,Effect with C. novyi-NT,[1]; 75 mg/kg × 1 (iv) with 3×108 C. novyi-NT spores iv,++++ (>20% cures)
same,Effect alone,[1]; 12.5 mg/kg × 1 (iv),+
same,Effect alone,[1]; 25 mg/kg × 1 (iv),++ (10% to 50% shrinkage in tumor volume relative to pre-treatment size)
same,Effect alone,[1]; 50 mg/kg × 1 (iv),++++ (>20% cures)
same,Effect alone,[1]; 75 mg/kg × 1 (iv),+++ (>50% shrinkage in tumor volume relative to pre-treatment size)
same,blood flow to the tumors (Hoechst 33342 labelling),[4],no observable effects
same,Glut-1 expression (hypoxia marker) in tumors,[5],No increase
same,increase in number of C. novyi-NT bacteria in tumor when co-injected with drug,C. novyi-NT,1.6 fold
same,# dead (treatment-related deaths),[3]; drug dose 25.0 mg/kg,0
same,# dead (treatment-related deaths),[3]; drug dose 50.0 mg/kg,0
same,# dead (treatment-related deaths),[3]; drug dose 75.0 mg/kg,0
same,Weight Loss (%),Weight loss after COBALT; drug dose 50.0 mg/kg,11.0%
